Results from patent US10864212B2, “Compositions and methods for treating retinal degradation” (University of Kentucky Research Foundation, priority 2013, dated 2020).
“Also recorded” adds a separate entry of the source.

How the values were obtained:
[1] = system: graft-versus-host disease; experiment: Graft-versus-host disease model, mice receiving allogeneic bone marrow and T cells; assay type: in vivo, mouse; details: saline treated controls 0%
From the text: (§1) To explore the potential therapeutic relevance of NRTIs beyond the Alu-induced model of geographic atrophy (GA), it was hypothesized that if NRTIs function as generic inflammasome inhibitors, then they might be broadly useful in other animal models of disease that are also driven by P2X7.

IRAK4 = experiment: LPS/ATP-induced IRAK4 phosphorylation in primary human RPE cells; assay type: cell-based; details: d4T 25/100 uM, FIG. 8
From the text: Vinculin was used as the loading control in the gel of FIG. 8. Additionally, as shown, LPS and ATP activate the NLRP3 inflammasome only in combination.
The loading control in FIG. 8 is vinculin. Furthermore, as shown, LPS and ATP activate the NLRP3 inflammasome only in combination, thus treatment with one or the other alone is useful as a control for this experiment.

neutrophil migration = experiment: NLRP3- and P2X7-driven model of sterile inflammation (liver injury); assay type: in vivo
From the text: as §1

IL-1 beta = experiment: MSU-induced IL-1 beta secretion from PMA-differentiated THP-1 monocytes (ELISA); assay type: cell-based, human; details: co-administration at 25-1000 uM, FIG. 11, 12
From the text: Human THP-1 monocytes were differentiated into macrophages with PMA.
To illustrate this, human THP-1 monocytes were differentiated into macrophages with PMA. Treatment with MSU increased IL-1 beta secretion compared to non-treated cells.

IL-1 beta mRNA = experiment: IL-1beta priming (mRNA) induced by Alu RNA in primary human RPE cells; assay type: cell-based; details: Alu RNA transfection, 24 hours, d4T 100 uM, FIG. 14
Experimental: FIG. 14 illustrates, in graph format, that Alu RNA transfection increases IL-1 beta mRNA levels in primary human RPE cells at 24 hours, an event termed “priming”, (Y-axis) compared to mock (transfection reagent alone).
FIG. 14 illustrates that Alu RNA transfection increases IL-1 beta mRNA levels in primary human RPE cells at 24 hours, an event termed “priming”, (Y-axis) compared to mock (transfection reagent alone).

Cc1cn([C@H]2C=C[C@@H](CO)O2)c(=O)[nH]c1=O [d4T, 2′3′ dideoxythymidine]
Survival [1]: 30-70% | IRAK4 phosphorylation induced by LPS/ATP (IRAK4): blocks | Neutrophil migration to the focus of liver injury (neutrophil migration): reduced neutrophil migration to the focus of liver injury | IL-1 beta secretion induced by MSU (IL-1 beta): does not prevent P2X7-independent interleukin 1-beta secretion; also recorded: did not significantly affect IL-1beta secretion | IL-1 beta mRNA levels (priming), normalized to 18S RNA (IL-1 beta mRNA): blunted
